target: AChE (Electrophorus electricus, UniProt O42275); assay: Ellman assay; assay type: biochemical
Sequence (O42275 24-633): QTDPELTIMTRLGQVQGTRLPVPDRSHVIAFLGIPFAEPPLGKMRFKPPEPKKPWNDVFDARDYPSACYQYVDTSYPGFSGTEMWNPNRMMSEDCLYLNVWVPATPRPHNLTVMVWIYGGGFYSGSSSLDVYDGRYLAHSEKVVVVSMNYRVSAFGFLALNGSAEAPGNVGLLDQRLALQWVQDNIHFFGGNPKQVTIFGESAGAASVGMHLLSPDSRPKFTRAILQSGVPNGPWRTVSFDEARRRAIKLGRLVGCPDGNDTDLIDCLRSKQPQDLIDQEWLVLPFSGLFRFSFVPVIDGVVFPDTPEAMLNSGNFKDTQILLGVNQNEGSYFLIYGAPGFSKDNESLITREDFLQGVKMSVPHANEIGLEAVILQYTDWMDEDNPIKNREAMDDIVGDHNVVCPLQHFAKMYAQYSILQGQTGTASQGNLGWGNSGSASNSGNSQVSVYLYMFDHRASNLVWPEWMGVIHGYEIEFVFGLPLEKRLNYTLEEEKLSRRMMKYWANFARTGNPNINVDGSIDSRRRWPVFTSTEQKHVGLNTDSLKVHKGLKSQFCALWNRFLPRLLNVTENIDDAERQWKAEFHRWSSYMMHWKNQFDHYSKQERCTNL

| SMILES | IC50 [µM] |
| --- | --- |
| COc1ccc2[nH]cc(CCNC(=O)Nc3cccc4cccnc34)c2c1 [a2, 1-(2-(5-methoxy-1H-indol-3-yl)ethyl)-3-(quinolin-8-yl) urea] | 29.2 ± 1.2 |
| O=C(NCCc1c[nH]c2ccc(O)cc12)Nc1cccc2cccnc12 [a3, 1-(2-(5-hydroxy-1H-indol-3-yl)ethyl)-3-(quinolin-8-yl) urea] | 36.3 ± 0.7 |
| CN(C)C(=O)Oc1ccc2[nH]cc(CCNC(=O)Nc3cccc4cccnc34)c2c1 [a4, 3-(2-(3-(quinolin-8-yl)ureido)ethyl)-1H-indol-5-yl dimethylcarbamate] | 35.6 ± 0.6 |
| O=C(CNc1cccc2cccnc12)NCCc1c[nH]c2ccccc12 [b1, N-(2-(1H-indol-3-yl)ethyl)-2-(quinolin-8-ylamino) acetamide] | 11.2 ± 0.4 |
| COc1ccc2[nH]cc(CCNC(=O)CNc3cccc4cccnc34)c2c1 [b2, N-(2-(5-methoxy-1H-indol-3-yl)ethyl)-2-(quinolin-8-ylamino) acetamide] | 13 ± 0.2 |
| O=C(CNc1cccc2cccnc12)NCCc1c[nH]c2ccc(O)cc12 [b3, N-(2-(5-hydroxy-1H-indol-3-yl)ethyl)-2-(quinolin-8-ylamino) acetamide] | 4.34 ± 0.1 |
| CN(C)C(=O)Oc1ccc2[nH]cc(CCNC(=O)CNc3cccc4cccnc34)c2c1 [b4, 3-(2-(2-(quinolin-8-ylamino)acetamido)ethyl)-1H-indol-5-yl dimethylcarbamate] | 11.2 ± 0.3 |
| CCN(C)C(=O)Oc1ccc2[nH]cc(CCNC(=O)CNc3cccc4cccnc34)c2c1 [b5, 3-(2-(2-(quinolin-8-ylamino)acetamido)ethyl)-1H-indol-5-yl ethyl (methyl) carbamate] | 13.7 ± 0.6 |
| c1cnc2c(NCCc3c[nH]c4ccccc34)cccc2c1 [c1, N-(2-(1H-indol-3-yl)ethyl) quinolin-8-amine] | 32.7 ± 1.4 |
| CCN(C)C(=O)Oc1ccc2[nH]cc(CCNc3cccc4cccnc34)c2c1 [c5, 3-(2-(quinolin-8-ylamino)ethyl)-1H-indol-5-yl ethyl (methyl) carbamate] | 25.1 ± 1.7 |

target: BuChE (Equus caballus, UniProt P81908); assay: Ellman assay; assay type: biochemical
Sequence (P81908 whole entry): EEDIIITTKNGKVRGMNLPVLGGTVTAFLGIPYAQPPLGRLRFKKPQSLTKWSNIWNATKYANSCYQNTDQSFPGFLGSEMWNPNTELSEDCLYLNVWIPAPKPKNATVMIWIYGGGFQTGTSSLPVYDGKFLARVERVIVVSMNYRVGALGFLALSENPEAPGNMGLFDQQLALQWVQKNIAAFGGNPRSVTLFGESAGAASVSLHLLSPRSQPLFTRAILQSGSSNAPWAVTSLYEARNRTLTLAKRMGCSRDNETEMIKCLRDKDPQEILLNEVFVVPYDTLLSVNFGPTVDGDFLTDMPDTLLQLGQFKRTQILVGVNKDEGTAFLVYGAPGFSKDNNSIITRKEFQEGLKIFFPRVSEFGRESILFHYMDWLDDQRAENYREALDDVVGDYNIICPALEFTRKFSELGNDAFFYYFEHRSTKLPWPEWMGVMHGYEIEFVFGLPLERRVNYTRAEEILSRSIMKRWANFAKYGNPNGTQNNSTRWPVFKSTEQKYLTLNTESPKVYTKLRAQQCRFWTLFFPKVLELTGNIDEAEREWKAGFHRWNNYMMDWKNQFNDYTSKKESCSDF

| SMILES | IC50 [µM] |
| --- | --- |
| O=C(NCCc1c[nH]c2ccccc12)Nc1cccc2cccnc12 [a1, 1-(2-(1H-indol-3-yl)ethyl)-3-(quinolin-8-yl) urea] | 10.3 ± 0.7 |
| O=C(NCCc1c[nH]c2ccc(O)cc12)Nc1cccc2cccnc12 [a3, 1-(2-(5-hydroxy-1H-indol-3-yl)ethyl)-3-(quinolin-8-yl) urea] | 8.78 ± 0.3 |
| CN(C)C(=O)Oc1ccc2[nH]cc(CCNC(=O)Nc3cccc4cccnc34)c2c1 [a4, 3-(2-(3-(quinolin-8-yl)ureido)ethyl)-1H-indol-5-yl dimethylcarbamate] | 3.3 ± 0.2 |
| CCN(C)C(=O)Oc1ccc2[nH]cc(CCNC(=O)Nc3cccc4cccnc34)c2c1 [a5, 3-(2-(3-(quinolin-8-yl)ureido)ethyl)-1H-indol-5-yl ethyl (methyl) carbamate] | 2.6 ± 0.4 |
| CN(C)C(=O)Oc1ccc2[nH]cc(CCNC(=O)CNc3cccc4cccnc34)c2c1 [b4, 3-(2-(2-(quinolin-8-ylamino)acetamido)ethyl)-1H-indol-5-yl dimethylcarbamate] | 0.9 ± 0.1 |
| CCN(C)C(=O)Oc1ccc2[nH]cc(CCNC(=O)CNc3cccc4cccnc34)c2c1 [b5, 3-(2-(2-(quinolin-8-ylamino)acetamido)ethyl)-1H-indol-5-yl ethyl (methyl) carbamate] | 0.8 ± 0.1 |
| c1cnc2c(NCCc3c[nH]c4ccccc34)cccc2c1 [c1, N-(2-(1H-indol-3-yl)ethyl) quinolin-8-amine] | 13.5 ± 0.4 |
| COc1ccc2[nH]cc(CCNc3cccc4cccnc34)c2c1 [c2, N-(2-(5-methoxy-1H-indol-3-yl)ethyl) quinolin-8-amine] | 4.5 ± 0.3 |
| Oc1ccc2[nH]cc(CCNc3cccc4cccnc34)c2c1 [c3, 3-(2-(quinolin-8-ylamino)ethyl)-1H-indol-5-ol] | 4.3 ± 0.4 |
| CN(C)C(=O)Oc1ccc2[nH]cc(CCNc3cccc4cccnc34)c2c1 [c4, 3-(2-(quinolin-8-ylamino)ethyl)-1H-indol-5-yl dimethylcarbamate] | 0.9 ± 0.1 |
| CCN(C)C(=O)Oc1ccc2[nH]cc(CCNc3cccc4cccnc34)c2c1 [c5, 3-(2-(quinolin-8-ylamino)ethyl)-1H-indol-5-yl ethyl (methyl) carbamate] | 1.1 ± 0.1 |
